According to US5211944A, “Proanthocyanidin polymers having antiviral activity and methods of obtaining same” (Shaman Pharmaceuticals, Inc., priority 1991, dated 1993):

What was measured:
Influenza viruses = settings: cited from earlier work
[1] = test system: Herpes Simplex Virus Type 2 (HSV-2); assay: HSV-2 vaginitis in mice, topical treatment; type: in vivo, Swiss Webster mice
[2] = Uninfected toxicity controls, topical treatment (HSV-2 study); type: in vivo, Swiss Webster mice; settings: 5% topical
Procedure: (§1) Groups of 5 mice were sham-infected using the process described above for virus infection, except that no virus was present for the final step. These mice were treated the same way and at the same times as above. Mice were checked daily for survival, and weights were recorded before the first (day 0) and after the last (day 8) treatment.
The efficacy of proanthocyanidin polymer A is compared with ganciclovir and acyclovir. Both ganciclovir powder and acyclovir cream were obtained commercially. Squibb cream base #8, which served as a vehicle and as the topical placebo control, was also commercially obtained.
The methods of infecting the mice, setting toxicity control and the parameters measured to evaluate the infection were the same as described above for the intraperitoneal tests. Topical treatments on the day of infection were given at +6 hours. They were then given twice daily for 7 more days.

Herpes simplex virus [3] = settings: cited from earlier work
Herpes Simplex virus [4] = settings: Beladi et al., 1977; in vitro; cited from earlier work
[5] = Uninfected toxicity controls, i.p. treatment (HSV-2 study); type: in vivo, Swiss Webster mice; settings: 30 mg/kg/day i.p.
Procedure: Six hours after virus infection, intraperitoneal (i.p.) injections were administered using proanthocyanidin polymer A, ganciclovir, or placebo. Treatments were also given i.p. twice daily on days 1 through 7 after virus challenge. The daily dose of each compound was 30 mg/kg/day, with 15 mg/kg given at each injection. Since on day 0 of the infection only one dose was given, the daily dose for that day was 15 mg/kg/day.
as §1

[6] = test system: Herpes Simplex Virus Type 2 (HSV-2); assay: HSV-2 vaginitis in mice, intraperitoneal treatment; type: in vivo, Swiss Webster mice; settings: 30 mg/kg/day i.p.
Herpes Simplex virus [7] = settings: HEp-2 cells; Beladi et al.; cited from earlier work

Q: Which “central nervous system side effects” value (Influenza viruses) does the source give for `CC(N)C12CC3CC(CC(C3)C1)C2` (racemic) [Rimantidine] here?
A: not associated with the central nervous system side-effects

Q: What about the “effect on fever duration and respiratory symptoms, versus amantadine” value (Influenza viruses) of the same molecule?
A: shows a similar effect

Q: For `Nc1nc2c(ncn2COCCO)c(=O)[nH]1` [Acyclovir], which “lesion formation in infected animals” value ([1]; 5% cream) is on record?
A: nearly completely prevented lesion formation

Q: What about the “Average Lesion Score” value ([1]; 5% topical, day 3) of the same molecule?
A: 0.2 ± 0.2

Q: And the “Average Lesion Score” value ([1]; 5% topical, day 4)?
A: 0.1 ± 0.2

Q: And the “Average Lesion Score” value ([1]; 5% topical, day 5)?
A: 0.0 ± 0.0

Q: And the “Average Lesion Score” value ([1]; 5% topical, day 6)?
A: 0.0 ± 0.0

Q: What about the “Average Lesion Score” value ([1]; 5% topical, day 7) of the same molecule?
A: 0.0 ± 0.0

Q: And the “Average Lesion Score” value ([1]; 5% topical, day 8)?
A: 0.1 ± 0.2

Q: And the “Average Lesion Score” value ([1]; 5% topical, day 9)?
A: 0.0 ± 0.0

Q: And the “Average Lesion Score” value ([1]; 5% topical, day 10)?
A: 0.0

Q: And the “Average Lesion Score” value ([1]; 5% topical, day 11)?
A: 0.0 ± 0.0

Q: And the “Average Lesion Score” value ([1]; 5% topical, day 12)?
A: 0.0 ± 0.0

Q: And the “Average Lesion Score” value ([1]; 5% topical, day 13)?
A: 0.0 ± 0.0

Q: And the “Average Lesion Score” value ([1]; 5% topical, day 14)?
A: 0.0 ± 0.0

Q: And the “No. of Mice W/O Lesion” value ([1]; 5% topical, day 14 of the infection)?
A: 10/10

Q: And the “Virus Titer (Day 2)” value ([1]; 5% topical, vaginal)?
A: 0.6 ± 0.2 Log 10 50% cell culture infectious dose per ml

Q: And the “Mean Day to Death” value ([1]; 5% topical, virus-infected)?
A: > 21 days

Q: What about the “Survivors (%)” value ([1]; 5% topical, virus-infected) of the same molecule?
A: 100%

Q: What about the Survivors/Total ([1]; 5% topical, virus-infected) of the same molecule?
A: 10/10

Q: What about the “Host Wt. Change” value ([2]; day 8 minus day 0) of the same molecule?
A: +2.0 grams

Q: And the “Mean Day to Death” value ([2]; uninfected toxicity controls)?
A: > 21 days

Q: What about the Survivors/Total ([2]; uninfected toxicity controls) of the same molecule?
A: 5/5

Q: What about the survival ([2]; mouse, in vivo, topical or ocular, uninfected toxicity controls, read-out: Survivors (%)) of the same molecule?
A: 100%

Q: What about the “topical effectiveness” value (Herpes simplex virus [3]) of the same molecule?
A: not effective topically when used against recurrent genital infections

Q: For `O=c1cc(-c2ccc(O)cc2)oc2cc(O)cc(O)c12` [Apigenin], which “virus-inactivating (viricidal) activity” value (Herpes Simplex virus [4]) is on record?
A: only a slight effect

Q: For `Nc1nc(O)c2ncn(COC(CO)CO)c2n1` [Ganciclovir], which “tolerability in toxicity control mice” value [5] is on record?
A: gained less weight than placebo controls

Q: And the “Host Wt. Change” value ([5]; day 8 minus day 0)?
A: +1.0 grams

Q: And the “Mean Day to Death” value ([5]; uninfected toxicity controls)?
A: > 21 days

Q: What about the Survivors/Total ([5]; uninfected toxicity controls) of the same molecule?
A: 5/5

Q: And the survival ([5]; mouse, in vivo, ip, uninfected toxicity controls, read-out: Survivors (%))?
A: 100%

Q: What about the “Average Lesion Score” value ([6]; day 3) of the same molecule?
A: 0.1 ± 0.2

Q: What about the “Average Lesion Score” value ([6]; day 4) of the same molecule?
A: 0.2 ± 0.2

Q: What about the “Average Lesion Score” value ([6]; day 5) of the same molecule?
A: 0.2 ± 0.2

Q: What about the “Average Lesion Score” value ([6]; day 6) of the same molecule?
A: 0.2 ± 0.2

Q: What about the “Average Lesion Score” value ([6]; day 7) of the same molecule?
A: 0.2 ± 0.2

Q: And the “Average Lesion Score” value ([6]; day 8)?
A: 0.3 ± 0.4

Q: And the “Average Lesion Score” value ([6]; day 9)?
A: 0.4 ± 0.3

Q: And the “Average Lesion Score” value ([6]; day 10)?
A: 0.5 ± 0.5

Q: And the “Average Lesion Score” value ([6]; day 12)?
A: 0.9 ± 0.2

Q: What about the “Average Lesion Score” value ([6]; day 13) of the same molecule?
A: 0.6 ± 0.6

Q: And the “Average Lesion Score” value ([6]; day 14)?
A: 0.6 ± 0.6

Q: What about the “Average Lesion Score, Grand Avg.” value ([6]; days 3-14) of the same molecule?
A: 0.4 ± 0.2

Q: And the “Virus Titer (Day 3)” value ([6]; vaginal swab)?
A: 1.7 ± 1.0 Log10 50% cell culture infectious dose per ml

Q: What about the “Mean Day to Death” value ([6]; virus-infected) of the same molecule?
A: > 21 days

Q: What about the “Survivors (%)” value ([6]; virus-infected) of the same molecule?
A: 100%

Q: What about the Survivors/Total ([6]; virus-infected) of the same molecule?
A: 10/10

Q: With `Nc1ncnc2c1ncn2[C@@H]1O[C@H](CO)[C@@H](O)[C@@H]1O` [Vidarabine, adenine arabinoside] as the molecule, how does the “topical effectiveness” value (Herpes simplex virus [3]) read?
A: not effective topically against herpes labialis or other skin/genital infections

Q: For `O=c1c(O)c(-c2ccc(O)c(O)c2)oc2cc(O)cc(O)c12` [quercetin], which “inhibitory effect on virus multiplication” value (Herpes Simplex virus [7]) is on record?
A: only a slight inhibitory effect on virus multiplication
